In ChEMBL document CHEMBL5725313, “Highly selective c-Met inhibitors as anticancer agents” (2017) one finds IC50 data, which are given here for four molecules.

The assay concerns the target Hepatocyte growth factor receptor (Homo sapiens, UniProt P08581). Description: c-Met In Vitro Kinase Assay: Optiplate-384 well plate (PerKinElmer), kinase buffer (50 mM Hepes pH7.5, 25 mM NaCl, 2 mM DTT, 0.01% Tween 20, 5 mM Mg2+, 0.5 mM Mn2+), c-Met kinase (1038-1346AA, prepared in-house), c-Met substrate (PerKinElmer, #TRF0127-M), Lance@Eu-W 1024-anti-phosphotyrosine (PT66), (PerKinElmer, #AD0068), ATP (Invitrogen), DMSO (Sigma, #34869), water (Millipore, model Milli-Q). A mixture of c-Met kinase (final concentration 12.5 nM) and test compound (final DMSO is 0.5%) is pre-incubated at 30° C. for 20 min. Then ATP (final concentration 2.5 uM) and kinase substrate (final concentration 50 nM) are added. The resulting mixture is kept at 30° C. for 1 hr, followed by addition of the c-Met antibody. After 1 hr, the plate is read at 615 nm and 665 nm. The ratio of absorption values at 665 nm and 615 nm is calculated and used for the data analysis as follows. This assay has a Minimum Significant Ratio (MSA) of 2-3.

Chain of Hepatocyte growth factor receptor (P08581 whole entry): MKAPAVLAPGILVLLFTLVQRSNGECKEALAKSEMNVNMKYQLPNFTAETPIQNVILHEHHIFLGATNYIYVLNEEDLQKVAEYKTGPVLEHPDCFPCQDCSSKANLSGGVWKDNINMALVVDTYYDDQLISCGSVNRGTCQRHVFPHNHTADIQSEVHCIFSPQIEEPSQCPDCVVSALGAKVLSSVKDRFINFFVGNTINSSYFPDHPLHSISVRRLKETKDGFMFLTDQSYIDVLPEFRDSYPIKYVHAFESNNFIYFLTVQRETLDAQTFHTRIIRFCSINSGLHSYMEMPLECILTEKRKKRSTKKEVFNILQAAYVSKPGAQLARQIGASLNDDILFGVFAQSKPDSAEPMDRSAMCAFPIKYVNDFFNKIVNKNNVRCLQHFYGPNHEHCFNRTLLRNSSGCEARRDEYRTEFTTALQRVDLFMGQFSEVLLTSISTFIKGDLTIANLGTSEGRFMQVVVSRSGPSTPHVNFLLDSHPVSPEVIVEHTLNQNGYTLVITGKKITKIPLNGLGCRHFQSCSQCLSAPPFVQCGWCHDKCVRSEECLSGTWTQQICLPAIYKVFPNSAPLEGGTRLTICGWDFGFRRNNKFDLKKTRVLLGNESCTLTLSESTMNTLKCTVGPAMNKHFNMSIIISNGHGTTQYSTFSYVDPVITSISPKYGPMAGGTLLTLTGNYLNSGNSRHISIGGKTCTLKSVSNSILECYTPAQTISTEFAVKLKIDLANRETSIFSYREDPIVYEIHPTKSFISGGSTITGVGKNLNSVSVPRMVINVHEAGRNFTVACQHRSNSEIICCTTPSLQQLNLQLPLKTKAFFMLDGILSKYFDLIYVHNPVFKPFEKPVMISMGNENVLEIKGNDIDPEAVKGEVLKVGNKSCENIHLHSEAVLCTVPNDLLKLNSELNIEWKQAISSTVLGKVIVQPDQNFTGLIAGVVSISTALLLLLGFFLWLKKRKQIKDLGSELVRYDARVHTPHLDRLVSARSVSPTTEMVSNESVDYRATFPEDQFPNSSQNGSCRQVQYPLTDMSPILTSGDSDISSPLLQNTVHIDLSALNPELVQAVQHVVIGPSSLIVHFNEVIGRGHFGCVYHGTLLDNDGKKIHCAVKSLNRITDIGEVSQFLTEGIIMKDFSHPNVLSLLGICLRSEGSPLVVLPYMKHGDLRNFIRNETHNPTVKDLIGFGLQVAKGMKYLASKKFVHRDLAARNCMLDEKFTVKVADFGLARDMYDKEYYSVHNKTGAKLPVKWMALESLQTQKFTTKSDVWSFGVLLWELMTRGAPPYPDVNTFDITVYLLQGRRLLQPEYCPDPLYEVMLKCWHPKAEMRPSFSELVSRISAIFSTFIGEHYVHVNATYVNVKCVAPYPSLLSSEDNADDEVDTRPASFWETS

Take `Cn1cc2c(F)c(C(F)(F)c3nnc4ccc(-c5cncc(F)c5)nn34)ccc2n1`: the IC50 is 261 nM.

As to `Cc1cncc(-c2ccc3nnc(C(F)(F)c4ccc5nn(C)cc5c4F)n3n2)c1`, the IC50 was 119 nM.

For the molecule `Cn1cc2c(F)c(C(F)(F)c3nnc4ccc(-c5cncc(Cl)c5)nn34)ccc2n1`, the IC50 was 194 nM.

In the case of `CNC(=O)c1ccc(-c2ccc3nnc(C(F)(F)c4ccc5nn(C)cc5c4F)n3n2)cn1`, the IC50 was 149 nM.

What is called IC50 is the concentration needed to halve the response being measured.
